Data on 1 substance can be found in patent US6709830B2, “Methods for modulating the activation of a lymphocyte expressed G protein coupled receptor involved in cell proliferation, autoimmunity and inflammation” (The Regents of the University of California, priority 1997, dated 2004).

“Also recorded” adds a separate entry of the source.

Experiment [1] concerns the target T1, G2A (Mus musculus, UniProt Q9Z282).
T1 construct: expressed in transfected cells; host or cells: MCF 10A (human breast epithelial cells, no endogenous G2A), plasmid pEXV3 G2A.GFP
T1 sequence (Q9Z282 1-382): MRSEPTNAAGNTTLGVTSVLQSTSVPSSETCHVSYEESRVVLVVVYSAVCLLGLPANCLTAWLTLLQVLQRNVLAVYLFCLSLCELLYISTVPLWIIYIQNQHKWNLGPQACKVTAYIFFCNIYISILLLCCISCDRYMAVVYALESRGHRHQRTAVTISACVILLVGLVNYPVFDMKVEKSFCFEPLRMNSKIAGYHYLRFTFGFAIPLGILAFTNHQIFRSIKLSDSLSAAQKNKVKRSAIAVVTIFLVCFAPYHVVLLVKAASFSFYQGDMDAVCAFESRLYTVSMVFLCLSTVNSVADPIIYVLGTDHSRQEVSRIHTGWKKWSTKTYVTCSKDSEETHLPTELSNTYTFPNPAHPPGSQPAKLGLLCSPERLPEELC
Briefly: Radioligand binding assay with cell homogenates of HEK 293 G2A.GFP cells. The following applies: HEK 293 G2A.GFP cell homogenate. The procedure:
To characterise the binding of LPC and SPC to G2A, we performed radioligand binding assays as described previously (Xu, Y, e al, Nature Cell Biology, 2: pp261-267, 2000). [^3H] 16:0 LPC and [^3H] SPC bound to cell homogenates from G2A expressing HEK 293 cells in a time-dependent manner and reached equilibrium after 60 minutes incubation at 4° C. (FIGS. 5A and B). […] LPC and [^3H] SPC. Binding of [^3H] LPC and [^3H] […] The maximum binding capacities for LPC and SPC were approximately 1,503 fmole/10^5 cells and 1,840 fmole/10^5 cells respectively.
Binding assay HEK 293 GFP or HEK 293 G2A.GFP cells were serum starved for 20 hours and subsequently collected in PBS/EDTA. Pelleted cells were stored at −80° C. until use. Frozen cells (10^6 cells/ml) were homogenized in “binding buffer” containing 20 mM Tris-HCl pH 7.5, 100 mM NaCl, 15 mM NaF, 0.2 mM PMSF, 1 mM MgCl2 and 4 mg/ml fatty acid-free BSA in a tight-fit glass Dounce homogeniser. Assays were performed in 96-well plates in triplicate with 100 μl cell homogenate (equivalent to 10^5 cells/well). Varying amounts of [^3H] 16:0 LPC or [^3H] SPC were added to cell homogenates in 50 μl of binding buffer in the presence or absence of cold 16:0 LPC or SPC, or other competitors. Plates were incubated at 4° C. for 2 hours, or for the indicated times. Cell-bound [^3H] LPC or [^3H] SPC was collected onto a filter (Printed Filtermat A, Wallac, Gaithersburg, Md.) using an automated cell harvester (HARVESTER 96, Tomtec, Orange, Conn.). A pause wash programme (five cycle washes) was used. Filters were presoaked in 1% polyethyleneimine (Sigma) to prevent nonspecific binding, dried, sealed in bags (Sample Bag, Wallac) with 4.5 ml Betaplate “Scint” scintillation cocktail (Wallac), and counted in a 1450 Microbeta Trilux Liquid Scintillation and Luminescence Counter (Wallac). Specific binding was calculated by subtraction of nonspecific binding (binding detected in the presence of 100-fold excess unlabelled lipid) from total binding.

Experiment [2] addresses T1, G2A. Briefly: Calcium assay ([Ca2+]i, Fura-2) in G2A.GFP transfected MCF 10A cells. The class given is cell-based. The protocol: MCF 10A cells were cultured in specialised glass-bottom dishes (Bioptech, Inc., Butler, Pa.) and loaded with Fura-2/AM ([…]; Molecular Probes) at 37° C. for 30 minutes in HEPES buffered saline (pH 7.4) containing 125 mM NaCl, 5 mM KCl, 1.2 mM MgSO4, 11 mM glucose, 1.8 mM CaCl2, 25 mM HEPES, 0.2% BSA. Loaded cells were washed, placed in HEPES buffeted saline without BSA, and incubated for 30 minutes at ambient temperature ensure dye hydrolysis by cytosolic esterases. Using a dual-wavelength spectrofluorometer (RFK-6002, Photon Technology Int'l, So. Brunswick, N.J.) coupled to an inverted fluorescence microscope (Olympus, IX-70, Lake Success, N.Y.), GFP-positive cells were identified using an excitation wavelength of 488 nm, a dichroic 505 nm long-pass and an emitter bandpass of 535 nm (Chroma Technology, Brattleboro, Vt.). [Ca^2+], measurements were performed on individual GFP-positive cells at excitation wavelengths of 340 nm and 380 nm, and an emission wavelength of 510 nm. Prior to data acquisition, background fluorescence (areas without cells) was measured and automatically subtracted from subsequent measurements. Agonists were diluted in HEPES buffered saline and solution changes accomplished by rapidly aspirating the buffer and replacing it with HEPES buffered saline containing the specific agonist. Fura-2 fluorescence signals (340 nm, 380 nm and the 340/380 ratio) originating from individual GFP-positive cells were continuously monitored at a sampling frequency of 25 Hz and collected using a software package from Photon Technology International (Felix™). Conversion of the 340 nm/380 nm ratio value into [Ca^2+]i was estimated by comparing the cellular fluorescence ratio with ratios acquired using Fura-2 (free acid) in buffers containing known Ca^2+ concentrations. [Ca^2+]i was then calculated as described by Grynkiewicz, et al (Grynkiewicz, G, et al, J Biol Chem, 260: pp3440-3450, 1985). All assays were performed in assay buffers containing 1 mM EGTA to exclude measurement of calcium influx.
To address whether G2A is a lysophospholipid receptor, we examined signalling events in cells ectopically expressing G2A as functional correlates of receptor activation. […] [Ca^2+]i measurements were performed in MCF 10A cells transfected with plasmids encoding green fluorescent protein (GFP) tagged G2A (pEXV3 G2A.GFP) (Kabarowski, J H S, et al, PNAS, 97: pp12109-12114, 2000) or GFP as described (Yan Xu and Derek S. Damron, Methods in Molecular Medicine, 39: Ovarian Cancer: Methods and Protocols, pp611-619, 2000). […] Similarly, dose-dependent responses of G2A.GFP transfected cells to SPC were observed, with an EC50 of approximately 0.4 μM (FIG. 4B). […] Responses to these agonists were not affected by G2A.GFP expression (FIG. 4A, middle and lower panels).

Regarding lysophosphatidylcholine [LPC], in experiment [1] (Scatchard analysis, saturation binding of [3H] 16:0 LPC or [3H] SPC, 4° C., read-out: dissociation constant (Kd)), the Kd was found to be 65 nM. The maximum binding capacity result in experiment [1] (saturation binding) is “approximately 1,503 fmole/10^5 cells”. The EC50 in experiment [2] (G2A.GFP transfected MCF 10A cells, 1 mM EGTA in buffer, read-out: EC50 of dose-dependent increase in [Ca2+]i) is roughly 100 nM. Further, in experiment [2] (G2A.GFP transfected MCF 10A cells, LPC 0.1 μM, SPC 0.1 μM, LPA 1 μM, PAF 0.1 μM, ATP 20 μM), the “transient increase in [Ca2+]i” value is “induced a transient increase; also recorded: induce transient [Ca^2+], increases”. The “desensitisation to subsequent stimulation with LPC or SPC (1 μM)” value in experiment [2] (pretreatment 5 minutes with LPC 1 μM or SPC 10 μM (b23 prints SPC 1.0 μM), G2A.GFP-transfected MCF 10A cells) is “induced homologous and heterologous desensitisation”.

Usually Kd stands for a measure of binding affinity in units of concentration. What is called EC50 is the concentration giving half of the maximal effect.
